In PMC6402191 (Clinical and Translational Science, 2017) one finds OATP1B3 substrate data, which are given here for one compound.

The series has as its target T1, OATP1B3 (Homo sapiens, UniProt Q9NPD5).
T1 sequence (Q9NPD5 1-702): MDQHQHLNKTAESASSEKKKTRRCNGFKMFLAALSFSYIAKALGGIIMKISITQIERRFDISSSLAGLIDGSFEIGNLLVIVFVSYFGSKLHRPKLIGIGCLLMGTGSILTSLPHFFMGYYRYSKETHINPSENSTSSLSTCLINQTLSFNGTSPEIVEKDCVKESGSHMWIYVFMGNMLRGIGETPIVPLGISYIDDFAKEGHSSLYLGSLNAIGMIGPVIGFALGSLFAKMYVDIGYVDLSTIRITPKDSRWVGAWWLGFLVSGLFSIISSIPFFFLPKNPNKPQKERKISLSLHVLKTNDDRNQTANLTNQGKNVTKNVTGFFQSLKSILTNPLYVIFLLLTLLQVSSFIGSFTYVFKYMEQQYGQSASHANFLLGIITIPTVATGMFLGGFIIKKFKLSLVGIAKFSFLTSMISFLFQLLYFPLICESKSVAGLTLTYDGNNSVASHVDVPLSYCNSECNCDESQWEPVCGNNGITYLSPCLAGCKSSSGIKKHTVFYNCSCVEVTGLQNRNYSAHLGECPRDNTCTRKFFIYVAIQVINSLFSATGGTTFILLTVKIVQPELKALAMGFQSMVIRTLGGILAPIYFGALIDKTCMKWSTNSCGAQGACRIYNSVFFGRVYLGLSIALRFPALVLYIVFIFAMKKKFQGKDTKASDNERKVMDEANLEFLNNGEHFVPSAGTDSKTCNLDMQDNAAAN
In words: Baricitinib substrate study in OATP1B3-transfected HEK-PEAK cells. The format is in vitro ADME.

Regarding `CCS(=O)(=O)N1CC(CC#N)(n2cc(-c3ncnc4[nH]ccc34)cn2)C1` [Baricitinib], the OATP1B3 substrate result is reported as “not a substrate”.
